Test results: ChEMBL document CHEMBL4513139, “CO-ADD screening of University of Strathclyde (UK) compounds”
“And” between values parts separate entries of the source, which are not always exact repeats. Identical values can stand only once.

Columns and labels:
Staphylococcus aureus = assay: microbe, parasite or virus in culture; settings: ATCC 43300, 18 h, ASSAY_TEST Inhibition of Bacterial Growth, detection method Absorption (OD600), MEDIA CAMHB, plate type 384well, NBS, CORNING #3640
Description: Antibacterial activity against Staphylococcus aureus MRSA ATCC 43300 (CO-ADD:GP_020); MIC in CAMBH media, using NBS plates, by OD(600)

Escherichia coli = assay: microbe, parasite or virus in culture; settings: ATCC 25922, 18 h, ASSAY_TEST Inhibition of Bacterial Growth, detection method Absorption (OD600), MEDIA CAMHB, plate type 384well, NBS, CORNING #3640
Description: Antibacterial activity against Escherichia coli ATCC 25922 (CO-ADD:GN_001); MIC in CAMBH media using NBS plates, by OD(600)

Klebsiella pneumoniae = assay: microbe, parasite or virus in culture; settings: ATCC 700603, 18 h, ASSAY_TEST Inhibition of Bacterial Growth, detection method Absorption (OD600), MEDIA CAMHB, plate type 384well, NBS, CORNING #3640
Description: Antibacterial activity against Klebsiella pneumoniae MDR ATCC 70063 (CO-ADD:GN_003); MIC in CAMBH media using NBS plates, by OD(600)

Pseudomonas aeruginosa = assay: microbe, parasite or virus in culture; settings: ATCC 27853, 18 h, ASSAY_TEST Inhibition of Bacterial Growth, detection method Absorption (OD600), MEDIA CAMHB, plate type 384well, NBS, CORNING #3640
Description: Antibacterial activity against Pseudomonas aeruginosa ATCC 27853 (CO-ADD:GN_042); MIC in CAMBH media using NBS plates, by OD(600)

Acinetobacter baumannii = assay: microbe, parasite or virus in culture; settings: ATCC 19606, 18 h, ASSAY_TEST Inhibition of Bacterial Growth, detection method Absorption (OD600), MEDIA CAMHB, plate type 384well, NBS, CORNING #3640
Description: Antibacterial activity against Acinetobacter baumannii ATCC 19606 (CO-ADD:GN_034); MIC in CAMBH media using NBS plates, by OD600

Candida albicans = assay: microbe, parasite or virus in culture; settings: ATCC 90028, ASSAY_TEST Inhibition of Fungal Growth, detection method Absorption (OD530), plate type 384well, NBS, CORNING #3640
Description: Antifungal activity against Candida albicans ATCC 90028 (CO-ADD:FG_001); MIC in YNB media using NBS plates, by OD630

HEK293 = assay: cells; format: functional, Homo sapiens, ATCC CRL1573; settings: ASSAY_TEST Inhibition of Cell Viability, detection method Resazurin, Fluorescence (ex560/em590), MEDIA DMEM with 10% FBS, plate type 384well, TC, CORNING #3712, time 18 hr
[1] = Homo sapiens, ATCC CRL1573, HEK293, read-out: CC50

Description for Cryptococcus neoformans: Antifungal activity against Cryptococcus neoformans H99 ATCC 208821 (CO-ADD:FG_002); MIC in YNB media using NBS plates, by Resazurin OD(600-570)

MIC (Cryptococcus neoformans)	MIC (Staphylococcus aureus)	MIC (Escherichia coli)	MIC (Klebsiella pneumoniae)	MIC (Pseudomonas aeruginosa)	MIC (Acinetobacter baumannii)	MIC (Candida albicans)	SMILES	CC50 (HEK293; [1])	CC50 (HEK293)
32 µg/mL	> 32 µg/mL	> 32 µg/mL	> 32 µg/mL	> 32 µg/mL	> 32 µg/mL	> 32 µg/mL	Cn1cc(NC(=O)c2cc(NC(=O)c3ccc(/C=C/C4CC4)cc3)cn2C)cc1C(=O)NCCN1CCOCC1.O=C(O)C(F)(F)F		
> 32 µg/mL	> 32 µg/mL	> 32 µg/mL	> 32 µg/mL	> 32 µg/mL	> 32 µg/mL	> 32 µg/mL	CC(C)CCc1sc(NC(=O)c2cc(NC(=O)c3cc4ccccc4cn3)cn2C)nc1C(=O)NCCCN(C)C.O=C(O)C(F)(F)F	2.17 µg/mL	
> 32 µg/mL	> 32 µg/mL	> 32 µg/mL	> 32 µg/mL	> 32 µg/mL	> 32 µg/mL	> 32 µg/mL	COc1cccc(/C=C/c2ccc(C(=O)Nc3cc(C(=O)Nc4cc(C(=O)NCCN5CCOCC5)n(C(C)C)c4)n(C)c3)cc2)c1.O=C(O)C(F)(F)F	4.31 µg/mL	
32 µg/mL	2 µg/mL	> 32 µg/mL	> 32 µg/mL	> 32 µg/mL	> 32 µg/mL	> 32 µg/mL	Cn1cc(NC(=O)c2ccc(/C=C/c3cnc4ccccc4c3)cc2)cc1C(=O)NCCN1CCOCC1.O=C(O)C(F)(F)F.O=C(O)C(F)(F)F	2.42 µg/mL	
32 µg/mL	> 32 µg/mL	> 32 µg/mL	> 32 µg/mL	> 32 µg/mL	> 32 µg/mL	> 32 µg/mL	CC(C)CCn1cc(NC(=O)c2cc(NC(=O)c3cc(NC(=N)N)cn3C)cn2C)cc1C(=O)NCCCN(C)C.O=C(O)C(F)(F)F.O=C(O)C(F)(F)F	> 32 µg/mL	
> 32 µg/mL	> 32 µg/mL	> 32 µg/mL	> 32 µg/mL	> 32 µg/mL	> 32 µg/mL	> 32 µg/mL	CC(=N)Nc1cc(C(=O)Nc2cc(C(=O)Nc3cc(C(=O)NCCCN(C)C)n(C)c3)n(C)c2)n(C)c1.O=C(O)C(F)(F)F.O=C(O)C(F)(F)F	> 32 µg/mL	
> 32 µg/mL	> 32 µg/mL	> 32 µg/mL	> 32 µg/mL	> 32 µg/mL	> 32 µg/mL	> 32 µg/mL	COc1ccc(C(=N)Nc2cc(C(=O)Nc3cc(C(=O)NCCN4CCOCC4)n(CCCc4cn(CCc5ccccc5)nn4)c3)n(C)c2)cc1.O=C(O)C(F)(F)F.O=C(O)C(F)(F)F	> 32 µg/mL	
	1 µg/mL	> 32 µg/mL	> 32 µg/mL	> 32 µg/mL	> 32 µg/mL	1 µg/mL	CN(C)CCNC(=O)c1cc(NC(=O)c2cc(NC(=O)c3ccc(/C=C/c4ccc(N(C)C)cc4)nc3)cn2C)cn1C.O=C(O)C(F)(F)F	2.17 µg/mL	
16 µg/mL	> 32 µg/mL	> 32 µg/mL	> 32 µg/mL	> 32 µg/mL	> 32 µg/mL	> 32 µg/mL	Cn1cc(NC(=O)c2ccc(/C=C/c3ccncc3)cc2)cc1C(=O)Nc1cc(C(=O)NCCN2CCOCC2)n(CCCCl)c1.O=C(O)C(F)(F)F.O=C(O)C(F)(F)F	2.7 µg/mL	
	8 µg/mL	> 32 µg/mL	> 32 µg/mL	> 32 µg/mL	> 32 µg/mL	> 32 µg/mL	COc1ccc(C(=N)Nc2cc(C(=O)Nc3nc(C(=O)NCCN4CCOCC4)c(CCc4ccccc4)s3)n(C)c2)cc1.O=C(O)C(F)(F)F.O=C(O)C(F)(F)F	8.88 µg/mL	
8 µg/mL	> 32 µg/mL	> 32 µg/mL	> 32 µg/mL	> 32 µg/mL	> 32 µg/mL	32 µg/mL	Cn1cc(NC(=O)c2cc(NC(=O)c3ccc(/C=C/c4cnc5ccccc5c4)cc3)cn2C)cc1C(=O)NCCC(=N)N.O=C(O)C(F)(F)F.O=C(O)C(F)(F)F	6.55 µg/mL	
> 32 µg/mL	> 32 µg/mL	> 32 µg/mL	> 32 µg/mL	> 32 µg/mL	> 32 µg/mL	> 32 µg/mL	COc1ccc(/C=C/c2ccc(C(=O)Nc3cc(C(=O)Nc4cc(C(=O)NCCN5CCC(O)CC5)n(C)c4)n(C)c3)cn2)cc1.O=C(O)C(F)(F)F.O=C(O)C(F)(F)F	> 32 µg/mL	
> 32 µg/mL	> 32 µg/mL	> 32 µg/mL	> 32 µg/mL	> 32 µg/mL	> 32 µg/mL	> 32 µg/mL	Cn1cc(NC(=O)c2cc(NC(=O)c3cc(NC(=O)c4ccc(Cl)cc4Cl)cn3C)cn2C)cc1C(=O)NCCCN1CCOCC1.O=C(O)C(F)(F)F	7.32 µg/mL	
> 32 µg/mL	> 32 µg/mL	> 32 µg/mL	> 32 µg/mL	> 32 µg/mL	> 32 µg/mL	> 32 µg/mL	Cn1cc(NC(=O)c2cc(NC(=O)c3ccc(/C=C/c4ccc(C(F)(F)F)cc4)cc3)cn2C)cc1C(=O)NCCN1CCOCC1.O=C(O)C(F)(F)F	> 32 µg/mL	
> 32 µg/mL	> 32 µg/mL	> 32 µg/mL	> 32 µg/mL	> 32 µg/mL	> 32 µg/mL	> 32 µg/mL	CC(=O)/C=C/c1ccc(C(=O)Nc2cc(C(=O)Nc3cc(C(=O)NCCN4CCOCC4)n(C)c3)n(C)c2)cc1.O=C(O)C(F)(F)F	7.01 µg/mL	
> 32 µg/mL	> 32 µg/mL	> 32 µg/mL	> 32 µg/mL	> 32 µg/mL	> 32 µg/mL	> 32 µg/mL	COc1ccc(/C=C/c2ccc(C(=O)Nc3cc(C(=O)Nc4cc(C(=O)NCCN5CCOCC5)n(CCCc5cn(CCc6ccccc6)nn5)c4)n(C)c3)cn2)cc1	> 32 µg/mL	
8 µg/mL	> 32 µg/mL	> 32 µg/mL	> 32 µg/mL	> 32 µg/mL	> 32 µg/mL	32 µg/mL	CN(C)CCCNC(=O)c1cc(NC(=O)c2cc(NC(=O)c3cc(NC(=N)c4cc5ccccc5cn4)cn3C)cn2C)cn1C.O=C(O)C(F)(F)F.O=C(O)C(F)(F)F	> 32 µg/mL	
> 32 µg/mL	> 32 µg/mL	> 32 µg/mL	> 32 µg/mL	> 32 µg/mL	> 32 µg/mL	> 32 µg/mL	Cn1cc(NC(=O)c2cc(NC(=O)c3ccc(/C=C/c4cnc5ccccc5c4)cc3)cn2C)cc1C(=O)NCCN1CCCC1=O.O=C(O)C(F)(F)F	12.7 µg/mL	
> 32 µg/mL	> 32 µg/mL	> 32 µg/mL	> 32 µg/mL	> 32 µg/mL	> 32 µg/mL	> 32 µg/mL	Cn1cc(NC(=O)c2cc(NC(=O)c3ccc(/C=C/c4cnc5ccccc5c4)cc3)cn2C)cc1C(=O)NCC[N+]1([O-])CCCCC1.O=C(O)C(F)(F)F	2.97 µg/mL	
> 32 µg/mL	> 32 µg/mL	> 32 µg/mL	> 32 µg/mL	> 32 µg/mL	> 32 µg/mL	> 32 µg/mL	COc1cccc(C(=N)Nc2cc(C(=O)Nc3cc(C(=O)Nc4cc(C(=O)NCCCN(C)C)n(CCC(C)C)c4)n(C)c3)n(C)c2)c1	> 32 µg/mL	
> 32 µg/mL	> 32 µg/mL	> 32 µg/mL	> 32 µg/mL	> 32 µg/mL	> 32 µg/mL	> 32 µg/mL	COC(=O)CCC(=O)Nc1cc(C(=O)Nc2cc(C(=O)Nc3nc(C(=O)NCCCN(C)C)c(CCC(C)C)s3)n(C)c2)n(C)c1	> 32 µg/mL	
> 32 µg/mL	1 µg/mL	> 32 µg/mL	> 32 µg/mL	> 32 µg/mL	> 32 µg/mL	> 32 µg/mL	COc1ccc(/C=C/c2ccc(C(=O)Nc3cc(C(=O)Nc4cc(C(=O)NCCN5CCC(OC)CC5)n(C)c4)n(C)c3)cn2)cc1.O=C(O)C(F)(F)F.O=C(O)C(F)(F)F	2.7 µg/mL	
> 32 µg/mL	> 32 µg/mL	> 32 µg/mL	> 32 µg/mL	> 32 µg/mL	> 32 µg/mL	> 32 µg/mL	Cn1cc(NC(=O)c2cc(NC(=O)c3ccc(/C=C/c4ccc5nonc5c4)cc3)cn2C)cc1C(=O)NCCN1CCOCC1.O=C(O)C(F)(F)F		
	> 32 µg/mL	> 32 µg/mL	> 32 µg/mL	> 32 µg/mL	> 32 µg/mL	> 32 µg/mL	COc1cccc(/C=C/c2ccc(C(=O)Nc3cc(C(=O)Nc4cc(C(=O)NCCN5CCOCC5)n(C)c4)n(C)c3)cc2)c1.O=C(O)C(F)(F)F	3.75 µg/mL	3.46 µg/mL
4 µg/mL and 8 µg/mL	> 32 µg/mL	> 32 µg/mL	> 32 µg/mL	> 32 µg/mL	> 32 µg/mL	> 32 µg/mL	Cn1cc(NC(=O)c2ccc(/C=C/c3cnc4ccccc4c3)cc2)cc1C(=O)Nc1cc(C(=O)NCCN2CCOCC2)n(CCCc2ccccc2)c1.O=C(O)C(F)(F)F.O=C(O)C(F)(F)F		
